Experimental data as given in patent US7129218B2, “Use of rhamnolipids in wound healing, treatment and prevention of gum disease and periodontal regeneration” (Paradigm Biomedical, Inc., priority 1999, dated 2006).
Where a name gives a salt, the structure may show the parent alone.

How the values were obtained:
mice = conditions: doses that failed to produce antidepressant effects in control animals; cited from earlier work
burn wounds = test: Burn wounds, 7% body surface, topical treatment (rats); format: in vivo, Sprague-Dawley rats; conditions: 1% chlorhexidine hydrochloride in combination with BAC-3 in ointment, burn wounds
Description: The wounding of animals was performed according to the Protocol for Animal Use and Care at the University of California-Davis (hereafter UC-Davis). The entire animal protocol required 70 Sprague-Dawley rats: 30 rats for incision wounds and 40 rats for burn wounds. Among them 36 rats were burned over 7% of their skin and 4 rats were burned over 15% of their skin. Incision wounds of whole skin and burn wounds were treated topically with 2 test doses of the pharmaceutical preparation of di-rhamnolipid BAC-3. […] D.E.A. Hamburg); 23.8 g Lanolinum (Producer I.O.I. Hamburg); 4.7 g Cholesterin (Producer: Solvay, Wiena, Austria); Water Number: 320); or b). 1%; 0.1% active rhamnolipid (BAC-3) with antiseptic (chlorhexidine hydrochloride-[…]). Eucerin with BAC-3 was administrated twice daily during healing. The same experiment had one control group without the treatment, and one control group which was treated with ointment+1% chlorhexidine hydrochloride. During the experiment, animal body weight and behavior was checked every third day, and photographs were taken periodically. Burn wounds. The consecutive burn wounds should ideally be identical in depth and extent. The standard method defines the size and location of the burn wound, the temperature gradient, duration of exposure and method of applying the burn. The wound surface areas tested were of two different sizes. One size to 7% of the body surface, which enables one to compare the rate of wound healing with different percentage of BAC-3 and the other size to 15% of the body surface, which is a sufficient size so that healing could not occur by contraction alone. On the other hand, the total wound surface area should not cause major systematic problems. The latter can be concluded from undisturbed weight gain of the animals. The standard animal burn was performed by techniques and device described by Walker. The burning devices were prepared using a model device ordered from U.S. Army Surgical Research Unit, Experimental Surgery, Army Medical Center, Fort Sam Houston, Tex. 78234. […] The surface of the skin was measured for every animal using Mech's formula: A=kW^2/3; A=surface area in cm^2; W=body weight in grams; k=10. Method of burning. Each animal was anesthetized with sodium pentobarbital administered i/p (5 mg/25 g). (Producer: Veterinary Laboratory Inc. Lenexa, Kans.). The hair over the dorsum was clipped with animal clippers. The animal was placed supine in the burning device and the extremities were tied; the malleable retractor was placed over the animal and secured snugly with plastic straps. The entire device was then picked up by the retractor ends with forceps and the exposed area was immersed in boiling water. Ten seconds of exposure was sufficient to produce a full-thickness burn. On removal from the water, the dorsum was quickly dried by rolling on a towel and the animal was released and individually caged. This procedure produced a uniform burn with sharp margins. On post burn days 7, 14 and 45, animals were sacrificed by overdose of sodium pentobarbital and skin specimens were taken for histopathology. Specimens included the wound bed as well as the healthy skin of the wound margins. The specimens were fixed, and two stainings were routinely performed: Hematoxylin-Eosin (H&E) for microscopic evaluation, Verhoeff's staining for a better visualization of the crust and the regenerating dermis, and the alpha smooth muscle acting to identify the myofibroblasts. Microscopic findings were interpreted by a veterinarian pathologist. During the microscopic and macroscopic observations, four wound healing parameters were evaluated: crust formation, re-epithelialization, formation of granulation tissue and inflammation. 36 rats were divided into 6 groups. Each group had six animals. After burning rats according to the above-described procedure, each rat was caged individually. […]

Wistar Kyoto (WKY) rats [1] = conditions: cited from earlier work
Wistar Kyoto (WKY) rats [2] = conditions: cited from earlier work; remark: listed apart in the source

Cc1nc2sccn2c(=O)c1CCN1CCC(=C(c2ccc(F)cc2)c2ccc(F)cc2)CC1 [ritanserin]
PCP-induced enhancement of immobility in the forced swimming test (mice): attenuated

[H]/N=C(\N/C(=N/[H])NCCCCCCNC(=N)NC(=N)Nc1ccc(Cl)cc1)Nc1ccc(Cl)cc1 [chlorhexidine hydrochloride, reference compound]
wound irritation (rats scratched the wounds) (burn wounds): irritated wounds

Cc1nc2n(c(=O)c1CCN1CCC(c3noc4cc(F)ccc34)CC1)CCCC2 [risperidone]
PCP-induced enhancement of immobility in the forced swimming test (mice): attenuated

CNCCCN1c2ccccc2CCc2ccccc21 [desipramine]
immobility in the forced swim test (Wistar Kyoto (WKY) rats [1]): reduces | incidence of stress ulcer (Wistar Kyoto (WKY) rats [2]): reduces
